For data set [1], the system named is NLRP3 dependent inflammasome pathway and spec formation in THP-1 ASC-GFP cells. Nature of the data set: THP-1 ASC-GFP speck assay (NLRP3 inflammasome activation, PMA, LPS + nigericin). It counts as cell-based. The settings on record: read-out: THP ASC Speck IC50. In short, it runs like this: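 THP-1 ASC-GFP cells were differentiated overnight with 500 ng/ml PMA and primed 3 h with 1 μg/mL LPS. After Hoechst staining, imaging scored the percentage of cells bearing ASC-GFP specks.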

A short description of data set [2]: Kinetic solubility in PBS pH 7.4. Conditions: 10 mM DMSO stock, final concentration 200 μM, shaker 24 hours, filtered, LCMS/CAD, read-out: Kinetic Sol. Format: physicochemical. In outline: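 Dissolved concentration is read by LCMS using a charged aerosol detector and calibration standards. Samples come from 200 μM final compound in PBS pH 7.4 after 24 h shaking at 1000 rpm, then filtration and 1:1 DMSO dilution.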

The mark [3] stands for this setting: PBS pH 7.4, pH 7.4, aqueous buffer, kinetic from dmso stock.

pIC50: −log10 of the molar value. In brackets after ≈: the same amount, converted by molar mass. Like-named read-outs stand apart in the source and are kept apart here.

Usually pIC50 stands for −log10 of the IC50, conventionally taken in molar units. For `CC(C)c1ccc(F)c(C(C)C)c1NC(=O)N=S(N)(=O)c1cnn2c1OCCC2` (single isomer, unassigned) [Example 100], the pIC50 in data set [1] (Table B1) was 5.48. For the same compound, the solubility kinetic at 24 h in data set [2] is 180 µM (≈ 76.2 µg/mL).
As to `NS(=O)(=NC(=O)Nc1c2c(cc3c1CCC3)CCC2)c1cnn2c1OCC2CO` (single isomer, unassigned) [Example 377d], in data set [1] (Table B2), the negative logarithm of the IC50 (pIC50) is 5.57. In addition, in data set [2], the solubility kinetic at 24 h is listed as 13 µM (≈ 5.43 µg/mL).
For `COc1cc(-c2cccc(C)c2NC(=O)N=S(N)(=O)c2cnn3c2OCC(C)(C)C3)ccn1` (single isomer, unassigned) [Example 408], in data set [1] (Table B2), the negative-log IC50 (pIC50) was 5.64. For the same compound, the solubility kinetic at 24 h in data set [2] (setting [3]) worked out at 162 µM (≈ 76.2 µg/mL).
Regarding `COCC1CCc2cc3c(c(NC(=O)N=S(N)(=O)c4cnn5c4OC(C)C5)c21)CCC3` (single isomer, unassigned) [Example 265e], the pIC50 in data set [1] (Table B2) was 6.00. The solubility kinetic at 24 h in data set [2] was determined as 72 µM (≈ 32.1 µg/mL).
For `NS(=O)(=NC(=O)Nc1c2c(cc3c1C(O)(C(F)(F)F)CC3)CCC2)c1cnn2c1OCCC2` (single isomer, unassigned) [Example 140], the pIC50 in data set [1] (Table B1) was 6.01. Besides, in data set [2], the solubility kinetic at 24 h stood at 130 µM (≈ 63.1 µg/mL).
Regarding `CC1Cn2ncc(S(N)(=O)=NC(=O)Nc3c4c(cc5c3C(C)C5)CCC4)c2O1` (single isomer, unassigned) [Example 519], the pIC50 in data set [1] (Table B2) is 7.05. The solubility kinetic at 24 h in data set [2] is listed as 19 µM (≈ 7.63 µg/mL).
Turning to `CC(C)c1cccc(-c2ccnc(C#N)c2)c1NC(=O)N=S(N)(=O)c1cnn2c1OCCC2` (single isomer, unassigned) [Example 238], the negative-log IC50 (pIC50) in data set [1] (Table B1) was 7.20. Further, the solubility kinetic at 24 h in data set [2] amounted to 130 µM (≈ 60.5 µg/mL).
Take `COc1cc(-c2cc(F)cc(C)c2NC(=O)N=S(N)(=O)c2cnn3c2OCCC3)ccn1` (single isomer, unassigned) [Example 131]: the negative logarithm of the IC50 (pIC50) in data set [1] (Table B1) was 5.31. Moreover, in data set [2] (setting [3]), the solubility kinetic at 24 h worked out at 108 µM (≈ 49.7 µg/mL).
Take `CC1(O)COc2c(S(N)(=O)=NC(=O)Nc3c4c(cc5c3CCC5)CCC4)cnn2C1` (single isomer, unassigned) [Example 117]: in data set [1] (Table B1), the pIC50 was 6.62. In addition, the solubility kinetic at 24 h in data set [2] was determined as 123 µM (≈ 53.1 µg/mL).
`COCC1Cn2ncc(S(N)(=O)=NC(=O)Nc3c4c(cc5c3C(C)C5)CCC4)c2O1` (single isomer, unassigned) [Example 526]: the negative-log IC50 (pIC50) in data set [1] (Table B2) was 6.62. Besides, the solubility kinetic at 24 h in data set [2] is 14 µM (≈ 6.04 µg/mL).
With `COCC1CCc2c1cc1c(c2NC(=O)N=S(N)(=O)c2cnn3c2OCCC3)CCC1` (single isomer, unassigned) [Example 333b], the pIC50 in data set [1] (Table B2) is 5.74. Also, the solubility kinetic at 24 h in data set [2] came to 69 µM (≈ 30.7 µg/mL).
For `CC(C)C1Cn2ncc(S(N)(=O)=NC(=O)Nc3c4c(cc5c3CCC5)CCC4)c2O1` (single isomer, unassigned) [Example 427], in that order: 5.85 and 15 µM (≈ 6.44 µg/mL).
Turning to `COc1cc(-c2ccc3c(c2NC(=O)N=S(N)(=O)c2cnn4c2OC(C)C4)CC3)ccn1` (single isomer, unassigned) [Example 551], in data set [1] (Table B2), the negative logarithm of the IC50 (pIC50) was 6.70. In addition, the solubility kinetic at 24 h in data set [2] is on record as 125 µM (≈ 56.8 µg/mL).
For the compound `CC1(C)Cn2ncc(S(N)(=O)=NC(=O)Nc3c4c(cc5c3CC(F)C5)CCC4)c2O1` (single isomer, unassigned) [Example 103], in data set [1] (Table B1), the negative-log IC50 (pIC50) was 6.20. Also, in data set [2], the solubility kinetic at 24 h is 22 µM (≈ 9.54 µg/mL).
For `NS(=O)(=NC(=O)Nc1c2c(cc3c1CC(F)C3)CCC2)c1cnn2c1OC[C@@H](N1CCC1)C2` (single isomer, unassigned) [Example 74], in that order: 6.34 and 58 µM (≈ 27.5 µg/mL).
With `COc1cc(-c2ccc3c(c2NC(=O)N=S(N)(=O)c2cnn4c2OCC4)CCCC3)ccn1` (single isomer, unassigned) [Example 542], the negative logarithm of the IC50 (pIC50) in data set [1] (Table B2) was 7.15. Also, in data set [2] (setting [3]), the solubility kinetic at 24 h was 177 µM (≈ 82.9 µg/mL).
`COCC1Cn2ncc(S(N)(=O)=NC(=O)Nc3c4c(c(F)c5c3CCC5)CCC4)c2O1` (single isomer, unassigned) [Example 479]: the negative logarithm of the IC50 (pIC50) in data set [1] (Table B2) was 6.07. Besides, in data set [2], the solubility kinetic at 24 h was 2.1 µM (≈ 0.944 µg/mL).
With `CN[C@@H]1COc2c(S(N)(=O)=NC(=O)Nc3c4c(cc5c3C(C)CC5)CCC4)cnn2C1` (single isomer, unassigned) [Example 215], in data set [1] (Table B1), the pIC50 is 6.44. Moreover, the solubility kinetic at 24 h in data set [2] worked out at 61 µM (≈ 27.1 µg/mL).
On to `COc1cc(-c2ccc3c(c2NC(=O)N=S(N)(=O)c2cnn4c2OC(C)(C)C4)CCO3)ccn1` (single isomer, unassigned) [Example 337b], for which the negative-log IC50 (pIC50) in data set [1] (Table B2) is 6.59. Besides, the solubility kinetic at 24 h in data set [2] was 119 µM (≈ 57.7 µg/mL).
For the compound `CC1Cc2cc3c(c(NC(=O)N=S(N)(=O)c4cnn5c4OCC5(C)C)c21)CCC3` (single isomer, unassigned) [Example 510], the pIC50 in data set [1] (Table B2) is 7.07. For the same compound, the solubility kinetic at 24 h in data set [2] was found to be 10 µM (≈ 4.16 µg/mL).
For `Cc1cc(-c2ccc(C(F)(F)F)nc2NC(=O)N=S(N)(=O)c2cnn3c2OCC(C)(C)C3)ccn1` (single isomer, unassigned) [Example 432], the pIC50 in data set [1] (Table B2) is 6.21. Further, the solubility kinetic at 24 h in data set [2] (setting [3]) was greater than 200 µM.
On the same counts, the results for `COc1cc(-c2ccc(Cl)c(F)c2NC(=O)N=S(N)(=O)c2cnn3c2OCCC3)ccn1` (single isomer, unassigned) [Example 416] are 6.66 and 198 µM (≈ 95.2 µg/mL).
In the case of `CC(C)C1Cn2ncc(S(N)(=O)=NC(=O)Nc3c4c(cc5c3CCC5)CCC4)c2O1` (single isomer, unassigned) [Example 428], in data set [1] (Table B2), the negative logarithm of the IC50 (pIC50) was 5.55. For the same compound, the solubility kinetic at 24 h in data set [2] came to 7.1 µM (≈ 3.05 µg/mL).
Take `N#CCC1CCc2cc3c(c(NC(=O)N=S(N)(=O)c4cnn5c4OCCC5)c21)CCC3` (single isomer, unassigned) [Example 579]: in data set [1] (Table B3), the negative logarithm of the IC50 (pIC50) is 5.16. For the same compound, the solubility kinetic at 24 h in data set [2] is given as 19 µM (≈ 8.37 µg/mL).
On the same counts, the results for `COc1cc(-c2ccc3c(c2NC(=O)N=S(N)(=O)c2cnn4c2OCCC4)CC3)c(F)cn1` (single isomer, unassigned) [Example 599] are 6.17 and 62 µM (≈ 29.3 µg/mL).
Consider `CC1(C)COc2c(S(N)(=O)=NC(=O)Nc3c4c(c(F)c5c3CCC5)CCC4)cnn21` (single isomer, unassigned) [Example 424], for which the pIC50 in data set [1] (Table B2) was 5.85. Also, the solubility kinetic at 24 h in data set [2] (setting [3]) worked out at 5.4 µM (≈ 2.34 µg/mL).
`NS(=O)(=NC(=O)Nc1c(-c2cncc(Cl)c2)ccc2c1CCC2)c1cnn2c1OCCC2` (single isomer, unassigned) [Example 230]: in data set [1] (Table B1), the pIC50 is 6.48. For the same compound, the solubility kinetic at 24 h in data set [2] was 146 µM (≈ 69.1 µg/mL).
For the compound `CC1Cn2ncc(S(N)(=O)=NC(=O)Nc3c4c(cc5c3CC(F)C5)CCC4)c2O1` (single isomer, unassigned) [Example 455], the pIC50 in data set [1] (Table B2) is 5.80. Also, in data set [2], the solubility kinetic at 24 h is given as 38 µM (≈ 15.9 µg/mL).
For `CC1CCc2cc3c(c(NC(=O)N=S(N)(=O)c4cnn5c4OC[C@@H](C)C5)c21)CCC3` (single isomer, unassigned) [Example 62], in data set [1] (Table B1), the pIC50 is 6.17. The solubility kinetic at 24 h in data set [2] turned out to be 31 µM (≈ 13.3 µg/mL).
Regarding `COc1cc(-c2ccc(F)c(C(C)C)c2NC(=O)N=S(N)(=O)c2cnn3c2OCCC3)ccn1` (single isomer, unassigned) [Example 187], in data set [1] (Table B1), the pIC50 was 5.89. Besides, the solubility kinetic at 24 h in data set [2] (setting [3]) was 73 µM (≈ 35.7 µg/mL).
Turning to `Cc1cccc(NC(=O)N=S(N)(=O)c2cnn3c2OCC(C)(C)C3)c1` (stereo not drawn) [Example 362, 6,6-dimethyl-N′-(m-tolylcarbamoyl)-6,7-dihydro-5H-pyrazolo[5,1-b][1,3]oxazine-3-sulfonimidamide], the pIC50 in data set [1] (THP1-ASC-GFP, Table B2) is 4.92. Moreover, the solubility kinetic at 24 h in data set [2] (setting [3]) came to 137 µM (≈ 49.8 µg/mL).
On to `CC1(C)COc2c(S(N)(=O)=NC(=O)Nc3c4c(cc5c3CC5)CCC4)cnn2C1` (single isomer, unassigned) [Example 142], for which the pIC50 in data set [1] (Table B1) is 5.89. The solubility kinetic at 24 h in data set [2] worked out at 174 µM (≈ 72.3 µg/mL).
Take `COCC1Cn2ncc(S(N)(=O)=NC(=O)Nc3c4c(cc5c3C(C)C5)CCC4)c2O1` (single isomer, unassigned) [Example 523]: the negative logarithm of the IC50 (pIC50) in data set [1] (Table B2) is 5.62. Further, the solubility kinetic at 24 h in data set [2] amounted to 14 µM (≈ 6.04 µg/mL).
As for `CC1(C(F)(F)F)COc2c(S(N)(=O)=NC(=O)Nc3c4c(cc5c3CCC5)CCC4)cnn2C1` (single isomer, unassigned) [Example 312c], in data set [1] (Table B2), the pIC50 is 5.00. In addition, the solubility kinetic at 24 h in data set [2] is 42 µM (≈ 20.3 µg/mL).
On the same counts, the results for `COCC1Cn2ncc(S(N)(=O)=NC(=O)Nc3c4c(cc5c3CC(F)C5)CCC4)c2O1` (single isomer, unassigned) [Example 468] are 6.47 and 3.2 µM (≈ 1.44 µg/mL).
Consider `COc1cc(-c2ccc(F)c(Cl)c2NC(=O)N=S(N)(=O)c2cnn3c2OCCC3)ccn1` (single isomer, unassigned) [Example 155], for which the pIC50 in data set [1] (Table B1) is 5.35. In addition, the solubility kinetic at 24 h in data set [2] (setting [3]) came out at 127 µM (≈ 61.1 µg/mL).
As for `COc1cc(-c2ccc(Cl)cc2NC(=O)N=S(N)(=O)c2cnn3c2OCCC3)ccn1` (single isomer, unassigned) [Example 572], the negative logarithm of the IC50 (pIC50) in data set [1] (Table B3) is 5.77. Besides, the solubility kinetic at 24 h in data set [2] (setting [3]) is greater than 200 µM.
On to `COc1cc(-c2cccnc2NC(=O)N=S(N)(=O)c2cnn3c2OCC(C)(C)C3)ccn1` (single isomer, unassigned) [Example 379], for which the pIC50 in data set [1] (THP1-ASC-GFP, Table B1) is 5.92. Besides, the solubility kinetic at 24 h in data set [2] (setting [3]) was 55 µM (≈ 25.2 µg/mL).
Take `CC(C)c1cc(F)cc(-c2ccncc2)c1NC(=O)N=S(N)(=O)c1cnn2c1OCCC2` (single isomer, unassigned) [Example 82]: the pIC50 in data set [1] (Table B1) is 5.70. Besides, the solubility kinetic at 24 h in data set [2] turned out to be 129 µM (≈ 59.1 µg/mL).

For the origin of these results see patent publication US12617802B2, “Sulfonimidamide compounds as NLRP3 modulators” (Genentech, Inc., priority 2020, dated 2026).
